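Grown in 96-well plates, cells were treated for 48 hours with each compound at five concentrations. Insufficient inhibition: endpoint recorded as highest concentration tested. Here, GI50 denotes the concentration required for 50% inhibition of growth.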 The source made the active and inactive calls. No stated cut-off is given here; in the data, active = GI50 up to about 1.1 µM and inactive = higher.
Key:
Experiment in all cases: growth of human tumour cells (NCI), 48 h
786-0 = system: 786-0
ACHN = system: ACHN
BT-549 = system: BT-549
COLO 205 = system: COLO 205
EKVX = system: EKVX
HT-29 = system: HT-29
IGROV-1 = system: IGROV-1
LOX IMVI = system: LOX IMVI
M14 = system: M14
MDA-MB-231 = system: MDA-MB-231
MDA-N = system: MDA-N
OVCAR-5 = system: OVCAR-5
PC-3 = system: PC-3
SF-295 = system: SF-295
SK-MEL-5 = system: SK-MEL-5
SK-OV-3 = system: SK-OV-3
SNB-19 = system: SNB-19
T47D = system: T47D
U-251 = system: U-251
SK-MEL-2 = system: SK-MEL-2

| SMILES | GI50 (786-0) | GI50 (ACHN) | GI50 (BT-549) | GI50 (COLO 205) | GI50 (EKVX) | GI50 (HT-29) | GI50 (IGROV-1) | GI50 (LOX IMVI) | GI50 (M14) | GI50 (MDA-MB-231) | GI50 (MDA-N) | GI50 (OVCAR-5) | GI50 (PC-3) | GI50 (SF-295) | GI50 (SK-MEL-5) | GI50 (SK-OV-3) | GI50 (SNB-19) | GI50 (T47D) | GI50 (U-251) | GI50 (SK-MEL-2) |
| --- | --- | --- | --- | --- | --- | --- | --- | --- | --- | --- | --- | --- | --- | --- | --- | --- | --- | --- | --- | --- |
| S=C1CC(c2ccccc2)Sc2ccc(Cl)cc2N1 (stereo unspecified) | 24.3 µM (inactive) | 58.1 µM (inactive) | 19.9 µM (inactive) | 63.7 µM (inactive) | 50.7 µM (inactive) | 60.7 µM (inactive) | 90.8 µM (inactive) | > 100 µM (inactive) | 37.4 µM (inactive) | 47.9 µM (inactive) | 38.8 µM (inactive) | > 100 µM (inactive) | 4.56 µM (inactive) | 26.9 µM (inactive) | 22 µM (inactive) | 56.6 µM (inactive) | 34 µM (inactive) | 59.3 µM (inactive) | 16.5 µM (inactive) | – |
| COc1ccc(N2C(=O)C3c4[nH]c5c(C)cccc5c4C4CCC(c5ccccc5)CC4C3C2=O)cc1 (stereo unspecified) | 3.9 µM (inactive) | 19.7 µM (inactive) | 24.9 µM (inactive) | 8.63 µM (inactive) | 26.2 µM (inactive) | 3.21 µM (inactive) | 13.7 µM (inactive) | 13.8 µM (inactive) | 11.9 µM (inactive) | 16.3 µM (inactive) | 13.5 µM (inactive) | 15.5 µM (inactive) | 12.1 µM (inactive) | 17.5 µM (inactive) | – | 17.7 µM (inactive) | 21.9 µM (inactive) | 5.81 µM (inactive) | 8.43 µM (inactive) | 24.2 µM (inactive) |
| O=C(Oc1cc(=O)c(OC(=O)c2ccccc2)co1)c1ccccc1 | 49.4 µM (inactive) | > 100 µM (inactive) | > 100 µM (inactive) | > 100 µM (inactive) | – | 84.5 µM (inactive) | > 100 µM (inactive) | 36.9 µM (inactive) | > 100 µM (inactive) | > 100 µM (inactive) | > 100 µM (inactive) | > 100 µM (inactive) | 91 µM (inactive) | 51.1 µM (inactive) | > 100 µM (inactive) | > 100 µM (inactive) | 92.7 µM (inactive) | 65.3 µM (inactive) | 64.9 µM (inactive) | > 100 µM (inactive) |
| Cc1ccc2c(c1C)C(=O)C1(C2)Cc2ccc3c(c2C1=O)CCC3 (stereo unspecified) | > 100 µM (inactive) | > 100 µM (inactive) | > 100 µM (inactive) | > 100 µM (inactive) | > 100 µM (inactive) | > 100 µM (inactive) | > 100 µM (inactive) | – | 2.03 µM (inactive) | > 100 µM (inactive) | > 100 µM (inactive) | > 100 µM (inactive) | > 100 µM (inactive) | > 100 µM (inactive) | > 100 µM (inactive) | > 100 µM (inactive) | > 100 µM (inactive) | > 100 µM (inactive) | > 100 µM (inactive) | > 100 µM (inactive) |
| CN(C(=O)C12C3C4(C(=O)O)C1(C(=O)N(C)C(C)(C)C)C1C2(C(=O)O)C3(C(=O)N(C)C(C)(C)C)C14C(=O)N(C)C(C)(C)C)C(C)(C)C (stereo unspecified) | > 100 µM (inactive) | > 100 µM (inactive) | > 100 µM (inactive) | > 100 µM (inactive) | > 100 µM (inactive) | > 100 µM (inactive) | > 100 µM (inactive) | > 100 µM (inactive) | > 100 µM (inactive) | > 100 µM (inactive) | > 100 µM (inactive) | > 100 µM (inactive) | > 100 µM (inactive) | > 100 µM (inactive) | > 100 µM (inactive) | – | > 100 µM (inactive) | > 100 µM (inactive) | > 100 µM (inactive) | > 100 µM (inactive) |
| C=C(C)[C@@H]1CCC2=C[C@@H](OC2=O)[C@@H](C(=C)C)C2=CC(C(=O)O)=C(C1)O2 | > 100 µM (inactive) | > 100 µM (inactive) | > 100 µM (inactive) | > 100 µM (inactive) | > 100 µM (inactive) | > 100 µM (inactive) | > 100 µM (inactive) | 42 µM (inactive) | > 100 µM (inactive) | > 100 µM (inactive) | > 100 µM (inactive) | > 100 µM (inactive) | – | > 100 µM (inactive) | > 100 µM (inactive) | > 100 µM (inactive) | > 100 µM (inactive) | 59.2 µM (inactive) | – | > 100 µM (inactive) |
| Cc1cccc2c1Oc1cc(Cl)ccc1C2NC(=O)CCN1CCCCC1 (stereo unspecified) | 14.8 µM (inactive) | – | 18.7 µM (inactive) | 15 µM (inactive) | 20.7 µM (inactive) | 12.6 µM (inactive) | > 10 µM (inactive) | 15.6 µM (inactive) | 17.7 µM (inactive) | 20.6 µM (inactive) | 16.3 µM (inactive) | 17.8 µM (inactive) | 14.6 µM (inactive) | 18.8 µM (inactive) | 14.9 µM (inactive) | – | 17.5 µM (inactive) | 13.1 µM (inactive) | 15.6 µM (inactive) | – |
| CCOC(=O)N/N=C(\CC)OCC | > 100 µM (inactive) | > 100 µM (inactive) | > 100 µM (inactive) | > 100 µM (inactive) | > 100 µM (inactive) | – | > 100 µM (inactive) | > 100 µM (inactive) | > 100 µM (inactive) | > 100 µM (inactive) | > 100 µM (inactive) | > 100 µM (inactive) | > 100 µM (inactive) | > 100 µM (inactive) | > 100 µM (inactive) | > 100 µM (inactive) | > 100 µM (inactive) | > 100 µM (inactive) | – | > 100 µM (inactive) |
| CCOP(=O)(OCC)/C(=C\N1C(=O)CC(=O)NC1=S)C(=O)OC | > 100 µM (inactive) | > 100 µM (inactive) | > 100 µM (inactive) | > 100 µM (inactive) | > 100 µM (inactive) | > 100 µM (inactive) | > 100 µM (inactive) | > 100 µM (inactive) | > 100 µM (inactive) | > 100 µM (inactive) | > 100 µM (inactive) | > 100 µM (inactive) | – | > 100 µM (inactive) | > 100 µM (inactive) | > 100 µM (inactive) | > 100 µM (inactive) | > 100 µM (inactive) | > 100 µM (inactive) | > 100 µM (inactive) |
| CC(C)=NC(C(=O)O)C(C)(C)S (stereo unspecified) | > 100 µM (inactive) | > 100 µM (inactive) | > 100 µM (inactive) | > 100 µM (inactive) | > 100 µM (inactive) | > 100 µM (inactive) | > 100 µM (inactive) | > 100 µM (inactive) | > 100 µM (inactive) | > 100 µM (inactive) | > 100 µM (inactive) | > 100 µM (inactive) | > 100 µM (inactive) | > 100 µM (inactive) | – | > 100 µM (inactive) | > 100 µM (inactive) | > 100 µM (inactive) | > 100 µM (inactive) | > 100 µM (inactive) |
| Cc1nc(N)c(N2CCN([N+](=O)[O-])CC2)c(O)n1 | > 100 µM (inactive) | > 100 µM (inactive) | > 100 µM (inactive) | > 100 µM (inactive) | > 100 µM (inactive) | > 100 µM (inactive) | – | > 100 µM (inactive) | > 100 µM (inactive) | > 100 µM (inactive) | > 100 µM (inactive) | > 100 µM (inactive) | > 100 µM (inactive) | > 100 µM (inactive) | – | – | > 100 µM (inactive) | > 100 µM (inactive) | > 100 µM (inactive) | > 100 µM (inactive) |
| CC(C)CC(N)C(=O)O (stereo unspecified) | > 100 µM (inactive) | > 100 µM (inactive) | > 100 µM (inactive) | > 100 µM (inactive) | – | > 100 µM (inactive) | > 100 µM (inactive) | > 100 µM (inactive) | > 100 µM (inactive) | > 100 µM (inactive) | > 100 µM (inactive) | – | > 100 µM (inactive) | > 100 µM (inactive) | > 100 µM (inactive) | > 100 µM (inactive) | > 100 µM (inactive) | > 100 µM (inactive) | > 100 µM (inactive) | > 100 µM (inactive) |
| COc1cc(O)c2c(O)c3c(=O)oc(C)cc3c(OC)c2c1 [PAEPALANTINE] | 31.1 µM (inactive) | 23.7 µM (inactive) | 34.8 µM (inactive) | 19.2 µM (inactive) | 29.9 µM (inactive) | 21.2 µM (inactive) | 27 µM (inactive) | – | 32 µM (inactive) | 28.4 µM (inactive) | 27.4 µM (inactive) | 32 µM (inactive) | 28.4 µM (inactive) | 27 µM (inactive) | 25.2 µM (inactive) | 24.5 µM (inactive) | 39.3 µM (inactive) | 32.4 µM (inactive) | 32.5 µM (inactive) | 31.9 µM (inactive) |
| COc1ccc(/C=C\c2cc(OC)c(OC)c(OC)c2)cc1OC(=O)NCCN(C)C | 0.00161 µM (active) | 0.000659 µM (active) | 0.83 µM (active) | 0.215 µM (active) | < 0.0247 µM (active) | 0.526 µM (active) | – | 0.000147 µM (active) | 0.000156 µM (active) | 0.01 µM (active) | < 0.0001 µM (active) | 0.00764 µM (active) | 0.000152 µM (active) | 0.000119 µM (active) | < 0.0001 µM (active) | 0.00339 µM (active) | 0.000178 µM (active) | – | 0.000125 µM (active) | – |
| CC1=NCC[N+]1(CCc1ccccc1)Cc1ccccc1 (stereo unspecified) | > 100 µM (inactive) | > 100 µM (inactive) | 33.6 µM (inactive) | 5.93 µM (inactive) | > 100 µM (inactive) | 12.5 µM (inactive) | 17.3 µM (inactive) | 44.9 µM (inactive) | 50.5 µM (inactive) | 62.4 µM (inactive) | 46.3 µM (inactive) | 47.4 µM (inactive) | – | > 100 µM (inactive) | 14.7 µM (inactive) | > 100 µM (inactive) | 71.9 µM (inactive) | > 100 µM (inactive) | 29.3 µM (inactive) | 27.7 µM (inactive) |

From ChEMBL document CHEMBL1201862, “PubChem BioAssay data set” (2004)
